Read-outs that look alike come from different tables or passages of the source.
Key:
[1] = test system: wild-type HIV-1 IIIB strain; assay: Antiviral activity in MT4 LTR-EGFP cellular assay; format: cell-based; details: Human immunodeficiency virus 1, 72 h; wild-type HIV-1 IIIB, MT4 LTR-EGFP cells, three days after infection; pEC50 = -log10(EC50); read-out: Antiviral Activity IIIB pEC50 (converted)
[2] = Cytotoxicity in mock-infected MT4 CMV-EGFP cells; format: cell-based; details: human, pCC50 = -log10(CC50), read-out: Toxicity MT4 pCC50 (converted)
[3] = in vitro; format: in vitro ADME, human; details: human, pH 7.4
[4] = biological target: T1, CYP3A4 (Homo sapiens, UniProt P08684); assay: CYP450 inhibition, fluorescent substrate assay, CYP3A4; format: biochemical; details: 10 μM test compound
T1 construct: host or cells: E. coli
Summary of the method: (§1)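 Test compounds were preincubated for 5 min at 37° C with CYP P450 enzyme and an NADPH generating system before phosphate-buffered (pH 7.4) fluorogenic substrate was added. Reactions were stopped with acetonitrile and the fluorescent product was read on a plate reader. Inhibition appears as loss of fluorescent signal.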

[5] = biological target: CYP2C9 (Homo sapiens, UniProt P11712); assay: CYP450 inhibition, fluorescent substrate assay, CYP2C9; format: biochemical; details: pH 7.4
Summary of the method: as §1

[6] = biological target: T2, CYP2D6 (Homo sapiens, UniProt P10635); assay: CYP450 inhibition, fluorescent substrate assay, CYP2D6; format: biochemical; details: E. coli expressed CYP2D6, pH 7.4, probe AMMC (3 μM), 10 μM test compound, substrate AMMC 3 μM, read-out: 2D6-AMMC % inh.
T2 construct: host or cells: E. coli
Summary of the method: as §1

[7] = biological target: T3, CYP1A2 (Homo sapiens, UniProt P05177); assay: CYP450 inhibition, fluorescent substrate assay, CYP1A2; format: biochemical; details: E. coli expressed CYP1A2, pH 7.4, probe CEC (5 μM), 10 μM test compound, substrate CEC 5 μM, read-out: 1A2-CEC % inh.
T3 construct: host or cells: E. coli
T3 sequence (P05177 1-516): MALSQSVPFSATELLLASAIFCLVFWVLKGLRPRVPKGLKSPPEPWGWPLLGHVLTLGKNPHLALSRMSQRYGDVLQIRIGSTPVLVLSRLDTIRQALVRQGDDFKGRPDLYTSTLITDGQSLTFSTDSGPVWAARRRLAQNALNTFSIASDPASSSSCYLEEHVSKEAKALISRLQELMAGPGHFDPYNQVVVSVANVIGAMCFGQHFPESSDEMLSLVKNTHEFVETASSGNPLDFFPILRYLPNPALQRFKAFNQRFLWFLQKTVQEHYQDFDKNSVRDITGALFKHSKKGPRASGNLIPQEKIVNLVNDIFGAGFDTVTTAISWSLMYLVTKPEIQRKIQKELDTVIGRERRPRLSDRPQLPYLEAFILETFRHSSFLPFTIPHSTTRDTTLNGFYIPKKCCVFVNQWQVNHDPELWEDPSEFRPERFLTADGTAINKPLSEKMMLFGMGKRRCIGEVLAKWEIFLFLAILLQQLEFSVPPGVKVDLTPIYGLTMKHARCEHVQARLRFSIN
Summary of the method: as §1

[8] = biological target: T4, CYP2C19 (Homo sapiens, UniProt P33261); assay: CYP450 inhibition, fluorescent substrate assay, CYP2C19; format: biochemical; details: E. coli expressed CYP2C19, pH 7.4, probe CEC (25 μM), 10 μM test compound, substrate CEC 25 μM, read-out: 2C19-CEC % inh.
T4 construct: host or cells: E. coli
Summary of the method: as §1

T1 sequence (P08684 whole entry): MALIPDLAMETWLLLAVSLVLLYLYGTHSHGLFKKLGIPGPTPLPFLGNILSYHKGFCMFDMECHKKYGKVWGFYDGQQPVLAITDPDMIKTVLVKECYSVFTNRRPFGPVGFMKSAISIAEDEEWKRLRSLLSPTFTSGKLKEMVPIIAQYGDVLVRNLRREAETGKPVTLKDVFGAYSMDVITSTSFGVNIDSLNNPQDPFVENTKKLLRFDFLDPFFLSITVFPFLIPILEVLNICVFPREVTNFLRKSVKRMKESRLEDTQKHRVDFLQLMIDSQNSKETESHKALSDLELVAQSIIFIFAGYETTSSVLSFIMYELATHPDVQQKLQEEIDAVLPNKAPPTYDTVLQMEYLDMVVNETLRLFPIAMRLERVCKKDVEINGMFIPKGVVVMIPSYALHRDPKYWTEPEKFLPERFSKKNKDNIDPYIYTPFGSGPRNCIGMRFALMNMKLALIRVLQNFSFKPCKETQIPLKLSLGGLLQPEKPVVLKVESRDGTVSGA
T2 sequence (P10635 whole entry): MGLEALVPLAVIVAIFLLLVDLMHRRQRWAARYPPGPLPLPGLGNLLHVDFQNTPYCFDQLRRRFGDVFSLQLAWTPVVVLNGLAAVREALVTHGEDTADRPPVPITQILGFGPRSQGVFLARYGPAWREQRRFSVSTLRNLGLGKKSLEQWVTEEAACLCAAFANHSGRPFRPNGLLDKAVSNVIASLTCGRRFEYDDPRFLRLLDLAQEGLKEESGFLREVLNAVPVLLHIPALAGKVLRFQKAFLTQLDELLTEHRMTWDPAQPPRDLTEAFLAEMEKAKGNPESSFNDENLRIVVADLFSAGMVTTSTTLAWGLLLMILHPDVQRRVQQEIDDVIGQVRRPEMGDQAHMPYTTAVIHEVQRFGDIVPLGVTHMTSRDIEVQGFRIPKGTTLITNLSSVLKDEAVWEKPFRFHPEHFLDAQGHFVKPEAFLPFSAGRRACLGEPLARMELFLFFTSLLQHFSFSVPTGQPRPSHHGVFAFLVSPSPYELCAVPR
T4 sequence (P33261 whole entry): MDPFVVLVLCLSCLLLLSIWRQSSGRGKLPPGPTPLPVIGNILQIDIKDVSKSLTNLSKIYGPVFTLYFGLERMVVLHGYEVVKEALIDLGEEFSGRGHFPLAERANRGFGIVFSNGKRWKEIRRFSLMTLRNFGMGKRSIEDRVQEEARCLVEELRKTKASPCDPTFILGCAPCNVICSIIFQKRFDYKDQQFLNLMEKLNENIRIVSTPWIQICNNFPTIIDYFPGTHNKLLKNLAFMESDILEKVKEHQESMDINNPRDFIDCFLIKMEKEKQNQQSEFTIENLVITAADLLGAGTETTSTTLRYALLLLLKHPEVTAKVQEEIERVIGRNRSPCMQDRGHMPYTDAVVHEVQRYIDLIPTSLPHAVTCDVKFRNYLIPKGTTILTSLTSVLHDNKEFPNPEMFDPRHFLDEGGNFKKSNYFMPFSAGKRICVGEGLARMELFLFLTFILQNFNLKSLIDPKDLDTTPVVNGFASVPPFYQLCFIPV
CYP2C9, sequence (P11712 whole entry): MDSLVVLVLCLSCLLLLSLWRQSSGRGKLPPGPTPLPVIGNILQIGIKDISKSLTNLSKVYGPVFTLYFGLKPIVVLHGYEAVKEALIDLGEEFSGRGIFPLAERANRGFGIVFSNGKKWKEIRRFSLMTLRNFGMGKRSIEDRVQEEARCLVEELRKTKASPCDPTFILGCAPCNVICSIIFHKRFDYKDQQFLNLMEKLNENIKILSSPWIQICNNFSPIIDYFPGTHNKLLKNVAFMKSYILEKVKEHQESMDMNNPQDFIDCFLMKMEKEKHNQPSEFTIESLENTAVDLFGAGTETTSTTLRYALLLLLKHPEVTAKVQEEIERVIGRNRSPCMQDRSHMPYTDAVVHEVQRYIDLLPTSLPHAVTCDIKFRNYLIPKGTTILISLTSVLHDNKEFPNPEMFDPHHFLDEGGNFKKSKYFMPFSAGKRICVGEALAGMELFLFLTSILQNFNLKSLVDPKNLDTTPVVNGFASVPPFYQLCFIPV

EC50 [1]: 74.1 µM | recovery at 15 min, 5 μM [3]: 98% | inhibition at 30 min, 10 μM ([4]; E. coli expressed CYP3A4, pH 7.4, probe BFC (150 μM), substrate BFC 150 μM, read-out: 3A4-BFC % inh.): 101% | inhibition at 30 min, 10 μM ([4]; E. coli expressed CYP3A4, pH 7.4, probe BQ (60 μM), substrate BQ 60 μM, read-out: 3A4-BQ % inh.): 81% | inhibition at 10 min, 10 μM ([4]; E. coli expressed CYP3A4, pH 7.4, probe DBF (1 μM), substrate DBF 1 μM, 10 min, read-out: 3A4-DBF % inh.): 90% | inhibition at 30 min, 10 μM [5]: 84% | inhibition at 45 min, 10 μM [6]: 86% | inhibition at 15 min, 10 μM [7]: 10% | inhibition at 30 min, 10 μM [8]: 96%
SMILES: O=C(N[C@@H](Cc1ccccc1)[C@H](O)CN(CC1CCCCC1)C(=O)c1ccncc1)OCc1cncs1 [Compound C27]
CC50 at 3 days [2]: 83.2 µM

From US8664391B2, “Amide compounds as boosters of antivirals” (Janssen R&D Ireland Ltd, priority 2008, dated 2014)
